Values joined by “and” are separate entries in the source; they are usually repeats but may differ in a detail not shown here. Equal values may be shown once.
Assays:
[1] = biological target: T1, α-glucosidase (Saccharomyces cerevisiae, UniProt P53341); test: Inhibitory kinetic analysis (Lineweaver–Burk plot); assay type: biochemical; settings: Lineweaver–Burk plots, pNPG 0.31–20 mM
T1 construct: purchased Shanghai Yuanye Biotechnology Co., Shanghai, China Lot No. M23HS178879 (catalogue number not given)
T1 sequence (P53341 whole entry): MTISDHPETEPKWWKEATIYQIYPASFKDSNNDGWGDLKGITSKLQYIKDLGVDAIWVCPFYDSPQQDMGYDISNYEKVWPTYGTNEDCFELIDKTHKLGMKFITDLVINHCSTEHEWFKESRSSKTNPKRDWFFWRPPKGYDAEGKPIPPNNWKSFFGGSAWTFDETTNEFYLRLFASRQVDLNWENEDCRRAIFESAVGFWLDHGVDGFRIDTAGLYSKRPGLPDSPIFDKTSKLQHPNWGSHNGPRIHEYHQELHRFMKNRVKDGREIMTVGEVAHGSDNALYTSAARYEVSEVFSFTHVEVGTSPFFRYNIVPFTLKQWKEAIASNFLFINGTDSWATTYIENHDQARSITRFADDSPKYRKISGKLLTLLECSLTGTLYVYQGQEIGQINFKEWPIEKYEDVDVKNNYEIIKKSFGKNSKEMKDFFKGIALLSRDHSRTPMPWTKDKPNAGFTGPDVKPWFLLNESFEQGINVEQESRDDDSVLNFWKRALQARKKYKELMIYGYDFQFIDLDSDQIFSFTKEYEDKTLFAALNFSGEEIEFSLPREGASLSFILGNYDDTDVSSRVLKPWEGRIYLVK
Protocol: The type of inhibition was determined by using the kinetics curve and the Lineweaver–Burk plot. […] These compounds were incubated with α-glucosidase at 37 °C for 30 min. After incubation, various concentrations of pNPG (0.31–20 mM) were added, and absorbance was measured at 405 nm. The Lineweaver–Burk plot was obtained by plotting 1/[S] on the x-axis and 1/v on the y-axis, where [S] represents substrate concentration and v represents the reaction velocity.

[2] = biological target: T1, α-glucosidase; test: Mixture effects of flavonoid combinations on α-glucosidase; assay type: biochemical
Protocol: (§1) The α-glucosidase inhibitory effects of flavonoids were evaluated as in a previous report with slight modifications (including changes in the concentrations of the enzyme, substrate, and Na2CO3). Briefly, 50 μL of phosphate-buffered saline (PBS, 0.1 M, pH 6.8), the test compound, and α-glucosidase (0.2 U/mL) were preincubated in a 96-well plate at 37 °C for 10 min. The reaction was then initiated by adding 50 μL of 5 mM pNPG as the substrate. Subsequently, the 96-well plate was incubated for an additional 30 min at 37 °C, then 50 μL of 0.2 M Na2CO3 was added to terminate the reaction. Absorbance was measured at under 405 nm.
The inhibitory activity of the composition was evaluated using the same method described in Section 3.2. […] The combination index (CI, Formula (3)) was subsequently used to assess the interactions between the compounds [60].(2) Y=Bottom+Top−Bottom/1+10^^((LogIC50−X)×HillSlope)
In Formula (3), (D)j represents the concentration of component j in the mixture needed to achieve an effect of x, while (Dx)j denotes the concentration of component j required to produce the same effect when acting alone. Here, x refers to the inhibition rate produced by the composition, and n indicates the number of individual compounds in the composition.

[3] = system: normal C57BL/6J mice; test: Oral sucrose test, postprandial blood glucose; assay type: in vivo; settings: for Blood glucose levels: 30 min after sucrose 4 g/kg, n = 8, in mmol/L (unit assumed); for Rate of blood glucose reduction: vs model group, 30 min after sucrose
From the text: Male C57BL/6J mice of SPF grade, aged 6–8 weeks and weighing 18–22 g, were obtained from the Experimental Animal Science Department of Peking University. The mice were housed in a controlled environment with a 12:12 light/dark cycle and a constant temperature. They were provided with standard pellet feed and given free access to drinking water. To ensure acclimatization, the mice were allowed to adjust to the diet and housing conditions for one week prior to the experiment. All animal experiments were performed in compliance with the relevant laws and institutional guidelines for the care and use of laboratory animals in China. The experiments were approved by the Laboratory Animal Management and Ethics Committee of Peking University (LA2021443). Additionally, the certification number for the laboratory animal personnel is 1120111300011.
The 16 flavonoids were subsequently evaluated for their potential antihyperglycemic effects by using the oral sucrose test, which is commonly used to evaluate intestinal α-glucosidase inhibition in vivo [62]. Normal C57BL/6J mice were randomly divided into model groups and the 16 flavonoid compound groups (n = 8 per group), respectively. The flavonoids at different concentrations were suspended in 0.5% sodium carboxymethyl cellulose (CMC-Na). […] Fifteen minutes after drug administration, the mice were given a sucrose solution (4 g/kg). Blood samples were collected from the tail vein at 30 min after sucrose loading, and blood glucose levels were measured using an Accu-Chek Performa glucometer (Roche Diagnostics, SN: 79508621393, Shanghai, China). The rate of blood glucose reduction was calculated using the following Formula (4):(4) The rate of blood glucose reduction%=the model blood glucose-the sample blood glucose/the model blood glucose×100%

[4] = biological target: T1, α-glucosidase; test: CD spectroscopy, secondary structure of α-glucosidase (BeStSel); settings: for β-turn: free enzyme 11.7; for β-sheet: free enzyme 28.8; for random coil: free enzyme 45.2; for α-helix: free enzyme 14.4
Protocol: CD spectra in the far-UV region (190–250 nm) were scanned by using a CD spectrometer (JASCO-1.5 Tokyo, Japan). […] The slit width was set to 1 nm, and the baseline was calibrated with PBS (phosphate buffered saline). CD spectra were averaged over three scans under a constant nitrogen flow, with the buffer signal subtracted. The results were analyzed using the BeStSel database (https://bestsel.elte.hu/index.php, accessed on 16 May 2025).

[5] = biological target: T2, Saccharomyces cerevisiae α-glucosidase (Saccharomyces cerevisiae, UniProt P53341); test: biochemical; settings: IC50, α-glucosidase 0.2 U/mL, 5 mM pNPG, PBS pH 6.8, 37 °C
T2 construct: purchased Shanghai Yuanye Biotechnology Co., Shanghai, China Lot No. M23HS178879 (catalogue number not given)
T2 sequence (P53341 whole entry): as above
Protocol: as §1

[6] = calculated from the dose–response curve
[7] = each compound alone at its IC15 concentration, Com1 = mixture of the four at IC15 (117 μM in total)
[8] = molar ratio 10:1, α-glucosidase 4 μM
[9] = molar ratio 40:1, α-glucosidase 4 μM
[10] = molar ratio compound:α-glucosidase 10:1, α-glucosidase 4 μM
[11] = 20 mg/kg oral (acarbose, positive control of each experiment)

SMILES: O=c1c(O[C@@H]2O[C@H](CO)[C@@H](O)[C@H](O)[C@H]2O)c(-c2ccc(O)c(O)c2)oc2cc(O)cc(O)c12 [C10, isoquercitrin]
- type of inhibition on α-glucosidase [1]: competitive inhibitor
- IC15 (concentration corresponding to a 15% inhibition rate) [2, 6]: 40 µM
- inhibition rate against α-glucosidase [2, 7]: 14.93 ± 4.73%
- Blood glucose levels ([3]; 10 mg/kg oral): 12.41 ± 2.07
- Rate of blood glucose reduction ([3]; 10 mg/kg oral): 7.66%
- Blood glucose levels ([3]; 25 mg/kg oral): 12.21 ± 2.08
- Rate of blood glucose reduction ([3]; 25 mg/kg oral): 9.15%
- Blood glucose levels ([3]; 50 mg/kg oral): 10.91 ± 1.78
- Rate of blood glucose reduction ([3]; 50 mg/kg oral): 18.82%
- β-turn [4, 8]: 14.2%
- β-sheet [4, 8]: 24.0%
- random coil [4, 8]: 49.3%
- β-turn [4, 9]: 13.1%
- α-helix [4, 9]: 12.5%
- β-sheet [4, 9]: 16.6%
- random coil [4, 9]: 57.8%
- α-helix [4, 10]: 12.4%
- IC50 [5]: 71.7 ± 7.62 µM

SMILES: O=c1c(O[C@@H]2O[C@H](CO)[C@@H](O)[C@H](O)[C@H]2O)c(-c2ccc(O)cc2)oc2cc(O)cc(O)c12 [C7, astragalin]
- effect on postprandial blood glucose ([3]; 30 min after the sucrose load, compared to the model group, C7 at 10, 50 or 250 mg/kg): no glucose-lowering effect

SMILES: O=C1C[C@@H](c2ccc(O)cc2)Oc2cc(O)cc(O)c21 [C5, naringenin]
- type of inhibition on α-glucosidase [1]: mixed-type inhibitors
- IC05 [2, 6]: 26.47 µM
- Blood glucose levels ([3]; 5 mg/kg oral): 14.56 ± 1.96
- Rate of blood glucose reduction ([3]; 5 mg/kg oral): 5.67%
- Blood glucose levels ([3]; 25 mg/kg oral): 13.23 ± 0.63
- Rate of blood glucose reduction ([3]; 25 mg/kg oral): 14.33%
- Blood glucose levels ([3]; 100 mg/kg oral): 12.39 ± 1.03
- Rate of blood glucose reduction ([3]; 100 mg/kg oral): 19.76%
- β-turn [4, 8]: 12.8%
- β-sheet [4, 8]: 20.6%
- random coil [4, 8]: 53.3%
- β-turn [4, 9]: 13%
- α-helix [4, 9]: 15.3%
- β-sheet [4, 9]: 25.3%
- random coil [4, 9]: 46.5%
- α-helix [4, 10]: 13.2%

SMILES: C[C@H]1O[C@H](O[C@H]2[C@H](O)[C@@H](O)[C@@H](O[C@H]3[C@H](O)[C@@H](O)C(O)O[C@@H]3CO)O[C@@H]2CO)[C@H](O)[C@@H](O)[C@@H]1N[C@H]1C=C(CO)[C@@H](O)[C@H](O)[C@H]1O (stereo partly drawn) [acarbose, reference compound]
- Blood glucose levels [3, 11]: 7.39 ± 0.70 and 7.38 ± 0.95 and 7.90 ± 0.56 and 8.09 ± 0.60 and 7.16 ± 0.52 and 7.98 ± 0.58
- Rate of blood glucose reduction [3, 11]: 49.31% and 47.09% and 48.83% and 44.13% and 46.72% and 50.02%

SMILES: O=C1c2ccc(O)cc2OCC1c1ccc(O)cc1 (stereo not drawn) [C28, dihydrodaidzein]
- type of inhibition on α-glucosidase [1]: mixed-type inhibitors
- IC05 [2, 6]: 98.27 µM
- Blood glucose levels ([3]; 2 mg/kg oral): 14.84 ± 0.62
- Rate of blood glucose reduction ([3]; 2 mg/kg oral): -1.80%
- Blood glucose levels ([3]; 10 mg/kg oral): 12.74 ± 0.75
- Rate of blood glucose reduction ([3]; 10 mg/kg oral): 12.61%
- Blood glucose levels ([3]; 50 mg/kg oral): 11.39 ± 1.48
- Rate of blood glucose reduction ([3]; 50 mg/kg oral): 21.87%
- β-turn [4, 8]: 14.4%
- β-sheet [4, 8]: 25.6%
- random coil [4, 8]: 50.7%
- β-turn [4, 9]: 12.9%
- α-helix [4, 9]: 10.9%
- β-sheet [4, 9]: 20.7%
- random coil [4, 9]: 55.5%
- α-helix [4, 10]: 9.30%
- IC50 [5]: 412 ± 11.4 µM

SMILES: C[C@@H]1O[C@@H](OC[C@H]2O[C@@H](Oc3c(-c4ccc(O)c(O)c4)oc4cc(O)cc(O)c4c3=O)[C@H](O)[C@@H](O)[C@@H]2O)[C@H](O)[C@H](O)[C@H]1O [C6, rutin]
- Blood glucose levels ([3]; 2 mg/kg oral): 14.68 ± 1.00
- Rate of blood glucose reduction ([3]; 2 mg/kg oral): -1.38%
- Blood glucose levels ([3]; 10 mg/kg oral): 12.81 ± 1.23
- Rate of blood glucose reduction ([3]; 10 mg/kg oral): 11.49%
- Blood glucose levels ([3]; 50 mg/kg oral): 11.83 ± 0.71
- Rate of blood glucose reduction ([3]; 50 mg/kg oral): 18.31%
- β-turn [4, 8]: 12.1%
- β-sheet [4, 8]: 26.9%
- random coil [4, 8]: 45.5%
- β-turn [4, 9]: 17.6%
- α-helix [4, 9]: 9.30%
- β-sheet [4, 9]: 14.3%
- random coil [4, 9]: 58.8%
- α-helix [4, 10]: 15.5%
- IC50 [5]: 211 ± 11.2 µM

SMILES: O=c1c(O)c(-c2ccc(O)cc2)oc2cc(O)cc(O)c12 [C2, kaempferol]
- type of inhibition on α-glucosidase [1]: mixed-type inhibitors
- Blood glucose levels ([3]; 10 mg/kg oral): 12.68 ± 1.47
- Rate of blood glucose reduction ([3]; 10 mg/kg oral): 9.06%
- Blood glucose levels ([3]; 50 mg/kg oral): 12.79 ± 0.81
- Rate of blood glucose reduction ([3]; 50 mg/kg oral): 8.25%
- Blood glucose levels ([3]; 100 mg/kg oral): 11.88 ± 1.62
- Rate of blood glucose reduction ([3]; 100 mg/kg oral): 14.80%
- β-turn [4, 8]: 12.5%
- β-sheet [4, 8]: 25.3%
- random coil [4, 8]: 48.2%
- β-turn [4, 9]: 13.3%
- α-helix [4, 9]: 9.70%
- β-sheet [4, 9]: 23.9%
- random coil [4, 9]: 53.1%
- α-helix [4, 10]: 14.1%

SMILES: O=c1c(O)c(-c2ccc(O)c(O)c2)oc2cc(O)cc(O)c12 [C1, quercetin]
- type of inhibition on α-glucosidase [1]: mixed-type inhibitors
- IC05 [2, 6]: 0.82 µM
- inhibition rate against α-glucosidase ([2]; each compound alone at its IC05 concentration, Com2 = mixture of the seven at IC05 (381.58 μM in total)): 4.70 ± 1.66%
- inhibition rate against α-glucosidase [2, 7]: 17.16 ± 0.75%
- Blood glucose levels ([3]; 10 mg/kg oral): 14.46 ± 1.06
- Rate of blood glucose reduction ([3]; 10 mg/kg oral): 0.77%
- Blood glucose levels ([3]; 50 mg/kg oral): 13.41 ± 0.41
- Rate of blood glucose reduction ([3]; 50 mg/kg oral): 7.98%
- Blood glucose levels ([3]; 100 mg/kg oral): 12.26 ± 1.65
- Rate of blood glucose reduction ([3]; 100 mg/kg oral): 15.87%
- β-turn [4, 8]: 13.1%
- β-sheet [4, 8]: 23.6%
- random coil [4, 8]: 49.1%
- β-turn [4, 9]: 12.5%
- α-helix [4, 9]: 11.1%
- β-sheet [4, 9]: 27.9%
- random coil [4, 9]: 48.5%
- α-helix [4, 10]: 14.0%

SMILES: O=c1c(-c2ccc(O)cc2)coc2cc(O)cc(O)c12 [C8, genistein]
- Blood glucose levels ([3]; 25 mg/kg oral): 13.91 ± 1.00
- Rate of blood glucose reduction ([3]; 25 mg/kg oral): 4.55%
- Blood glucose levels ([3]; 50 mg/kg oral): 13.26 ± 0.72
- Rate of blood glucose reduction ([3]; 50 mg/kg oral): 9.01%
- Blood glucose levels ([3]; 100 mg/kg oral): 12.06 ± 0.82
- Rate of blood glucose reduction ([3]; 100 mg/kg oral): 17.24%

Reference: PMC12114633, “α-Glucosidase Inhibition Mechanism and Anti-Hyperglycemic Effects of Flavonoids from Astragali Radix and Their Mixture Effects” (Pharmaceuticals, 2025)
